Data from the NIST ThermoML archive (doi:10.1021/je500431h).
± gives the expanded uncertainty stated by the source.

Experiment: xn = mol fraction of the nth substance listed
Details: 101 kPa, Liquid; for mass density: Pycnometric method; for electrical conductivity: conductivity meter LF 340 and a standard conductivity cell TetraCon

C=CCn1cc[n+](CCOC)c1.O=S(=O)([N-]S(=O)(=O)C(F)(F)F)C(F)(F)F + O=S(=O)([N-]S(=O)(=O)C(F)(F)F)C(F)(F)F.[Li+]
Details | electrical conductivity [S/m] | mass density [kg/m3] | viscosity [mPa·s]
308 K, x2 = 0.176 | – | 1480.1 ± 2.4 | 56.2 ± 2.4
308 K, x2 = 0.2508 | – | 1505.3 ± 2.3 | 72.2 ± 3.5
308 K, x2 = 0.3254 | – | 1525.3 ± 2.5 | 116.4 ± 8
308.2 K, x2 = 0.176 | 0.3 ± 0.018 | – | –
308.2 K, x2 = 0.4001 | 0.0856 ± 0.0051 | – | –
308.7 K, x2 = 0 | 0.546 ± 0.033 | – | –
308.7 K, x2 = 0.2508 | 0.228 ± 0.014 | – | –
308.8 K, x2 = 0.3254 | 0.16 ± 0.0096 | – | –
308.9 K, x2 = 0.1007 | 0.425 ± 0.026 | – | –
309 K, x2 = 0 | – | 1437 ± 2.2 | 23.7 ± 1
309 K, x2 = 0.1007 | – | 1459.7 ± 2.3 | 38 ± 1.7
309.2 K, x2 = 0.4001 | – | – | 221.6 ± 22
309.24 K, x2 = 0.4001 | – | 1551.1 ± 2.5 | –
313 K, x2 = 0.176 | – | 1475.4 ± 2.3 | 44.4 ± 2
313 K, x2 = 0.2508 | – | 1500.4 ± 2.4 | 57.1 ± 2.4
313 K, x2 = 0.3254 | – | 1520.3 ± 2.4 | 89.4 ± 4.9
313.3 K, x2 = 0 | 0.627 ± 0.038 | – | –
313.4 K, x2 = 0.4001 | 0.113 ± 0.0068 | – | –
313.5 K, x2 = 0.3254 | 0.2 ± 0.012 | – | –
313.9 K, x2 = 0.176 | 0.372 ± 0.022 | – | –
314 K, x2 = 0 | – | 1432.3 ± 2.2 | 20.3 ± 0.9
314 K, x2 = 0.4001 | – | 1546.3 ± 2.5 | 168.3 ± 14
314.4 K, x2 = 0.1007 | 0.514 ± 0.031 | – | –
314.4 K, x2 = 0.2508 | 0.284 ± 0.017 | – | –
315 K, x2 = 0.1007 | – | 1453.9 ± 2.2 | 27.9 ± 1.2
317 K, x2 = 0 | – | 1429.6 ± 2.2 | 17.8 ± 0.8
317 K, x2 = 0.2508 | – | 1496.4 ± 2.4 | 47.8 ± 2.1
317 K, x2 = 0.3254 | – | 1516.3 ± 2.4 | 75.1 ± 3.7
317.9 K, x2 = 0.2508 | 0.327 ± 0.02 | – | –
318 K, x2 = 0.176 | – | 1470.7 ± 2.3 | 35.8 ± 1.6
318 K, x2 = 0.4001 | – | 1542.3 ± 2.5 | 138.5 ± 10
318.1 K, x2 = 0 | 0.72 ± 0.043 | – | –
318.1 K, x2 = 0.4001 | 0.141 ± 0.0085 | – | –
319 K, x2 = 0.3254 | 0.248 ± 0.015 | – | –
319.2 K, x2 = 0.1007 | 0.596 ± 0.036 | – | –
319.5 K, x2 = 0.1007 | – | 1449.6 ± 2.2 | 22.8 ± 1
319.6 K, x2 = 0.176 | 0.453 ± 0.027 | – | –
322.4 K, x2 = 0.176 | 0.493 ± 0.03 | – | –
323 K, x2 = 0.176 | – | 1466 ± 2.3 | 29.6 ± 1.3
323 K, x2 = 0.3254 | – | 1510.4 ± 2.4 | 56.8 ± 2.4
323.3 K, x2 = 0 | 0.828 ± 0.05 | – | –
323.5 K, x2 = 0 | – | 1423.5 ± 2.2 | 14.6 ± 0.6
323.9 K, x2 = 0.3254 | 0.3 ± 0.018 | – | –
324 K, x2 = 0.2508 | – | 1489.5 ± 2.4 | 37.4 ± 1.6
324 K, x2 = 0.4001 | – | 1536.2 ± 2.5 | 100.9 ± 6.1
324.1 K, x2 = 0.4001 | 0.183 ± 0.011 | – | –
324.4 K, x2 = 0.1007 | 0.694 ± 0.042 | – | –
324.6 K, x2 = 0.2508 | 0.41 ± 0.025 | – | –
325.2 K, x2 = 0.1007 | – | 1444.2 ± 2.2 | 19.6 ± 0.9
327 K, x2 = 0.3254 | – | 1506.5 ± 2.4 | 49 ± 2.1
327.2 K, x2 = 0.1007 | – | 1442.3 ± 2.2 | 17.7 ± 0.8
327.2 K, x2 = 0.176 | – | 1462 ± 2.3 | 25.4 ± 1.1
327.5 K, x2 = 0.4001 | 0.214 ± 0.013 | – | –
327.9 K, x2 = 0 | 0.935 ± 0.056 | – | –
328 K, x2 = 0 | – | 1419.4 ± 2.2 | 13.1 ± 0.6
328 K, x2 = 0.2508 | – | 1485.6 ± 2.3 | 32.3 ± 1.4
328 K, x2 = 0.4001 | – | 1532.2 ± 2.5 | 82.1 ± 4.3
328.5 K, x2 = 0.2508 | 0.467 ± 0.028 | – | –
328.7 K, x2 = 0.176 | 0.588 ± 0.035 | – | –
328.8 K, x2 = 0.3254 | 0.353 ± 0.021 | – | –
328.9 K, x2 = 0.1007 | 0.778 ± 0.047 | – | –
332.9 K, x2 = 0 | 1.06 ± 0.063 | – | –
333.1 K, x2 = 0.3254 | 0.405 ± 0.024 | – | –
333.4 K, x2 = 0.2508 | 0.535 ± 0.032 | – | –
334 K, x2 = 0 | – | 1413.9 ± 2.2 | 11.2 ± 0.5
334 K, x2 = 0.1007 | 0.885 ± 0.053 | – | –
334 K, x2 = 0.176 | – | 1455.7 ± 2.3 | 20.4 ± 0.9
334 K, x2 = 0.2508 | – | 1479.8 ± 2.4 | 25.9 ± 1.1
334 K, x2 = 0.3254 | – | 1499.7 ± 2.4 | 37.1 ± 1.6
334 K, x2 = 0.4001 | – | 1526.3 ± 2.5 | 63.2 ± 2.8
334.2 K, x2 = 0.1007 | – | 1435.7 ± 2.2 | 15.3 ± 0.7
334.3 K, x2 = 0.4001 | 0.275 ± 0.017 | – | –
334.5 K, x2 = 0.176 | 0.691 ± 0.041 | – | –
337 K, x2 = 0.3254 | – | 1496.9 ± 2.4 | 32 ± 1.4
337.4 K, x2 = 0.2508 | 0.6 ± 0.036 | – | –
337.6 K, x2 = 0 | 1.18 ± 0.071 | – | –
338 K, x2 = 0.176 | – | 1452.1 ± 2.3 | 18.2 ± 0.8
338 K, x2 = 0.2508 | – | 1475.9 ± 2.3 | 22.9 ± 1
338.1 K, x2 = 0.1007 | – | 1432 ± 2.2 | 12.9 ± 0.6
338.5 K, x2 = 0 | – | 1409.9 ± 2.2 | 10 ± 0.4
338.5 K, x2 = 0.3254 | 0.474 ± 0.028 | – | –
338.9 K, x2 = 0.176 | 0.76 ± 0.046 | – | –
339 K, x2 = 0.1007 | 0.986 ± 0.059 | – | –
339 K, x2 = 0.4001 | – | 1521.4 ± 2.5 | 54.2 ± 2.2
339.3 K, x2 = 0.4001 | 0.323 ± 0.019 | – | –
343 K, x2 = 0 | 1.33 ± 0.08 | – | –
343 K, x2 = 0.3254 | – | 1491.1 ± 2.4 | 27.3 ± 1.2
343.2 K, x2 = 0.1007 | – | 1427.3 ± 2.2 | 11.4 ± 0.5
343.3 K, x2 = 0.3254 | 0.539 ± 0.032 | – | –
343.5 K, x2 = 0.2508 | 0.698 ± 0.042 | – | –
343.8 K, x2 = 0.176 | 0.858 ± 0.051 | – | –
344 K, x2 = 0 | – | 1404.9 ± 2.2 | 8.8 ± 0.4
344 K, x2 = 0.176 | – | 1446.6 ± 2.3 | 15.4 ± 0.7
344 K, x2 = 0.4001 | – | 1516.5 ± 2.5 | 44.8 ± 2
344.4 K, x2 = 0.4001 | 0.385 ± 0.023 | – | –
344.5 K, x2 = 0.1007 | 1.11 ± 0.066 | – | –
345 K, x2 = 0.2508 | – | 1469.2 ± 2.3 | 19.2 ± 0.8
347 K, x2 = 0.3254 | – | 1487.3 ± 2.4 | 24 ± 1
348 K, x2 = 0 | – | 1401.3 ± 2.2 | 8.2 ± 0.4
348.1 K, x2 = 0 | 1.48 ± 0.089 | – | –
348.2 K, x2 = 0.2508 | 0.784 ± 0.047 | – | –
348.3 K, x2 = 0.1007 | 1.19 ± 0.072 | – | –
348.5 K, x2 = 0.3254 | 0.62 ± 0.037 | – | –
348.6 K, x2 = 0.176 | 0.954 ± 0.057 | – | –
348.7 K, x2 = 0.4001 | 0.436 ± 0.026 | – | –
349 K, x2 = 0.1007 | – | 1421.9 ± 2.2 | 10.3 ± 0.5
349 K, x2 = 0.176 | – | 1442 ± 2.3 | 13.7 ± 0.6
349 K, x2 = 0.2508 | – | 1465.4 ± 2.3 | 17.1 ± 0.8
349 K, x2 = 0.4001 | – | 1511.6 ± 2.5 | 38 ± 1.7
352 K, x2 = 0 | 1.6 ± 0.096 | – | –
352.5 K, x2 = 0.2508 | 0.858 ± 0.051 | – | –
353.3 K, x2 = 0.3254 | 0.694 ± 0.042 | – | –
353.5 K, x2 = 0.4001 | 0.498 ± 0.03 | – | –
354.2 K, x2 = 0 | – | 1395.8 ± 2.2 | 7 ± 0.3
354.5 K, x2 = 0.1007 | – | 1416.9 ± 2.2 | 9.5 ± 0.4
354.9 K, x2 = 0.1007 | 1.35 ± 0.081 | – | –
354.9 K, x2 = 0.176 | 1.09 ± 0.065 | – | –
355 K, x2 = 0.176 | – | 1436.6 ± 2.2 | 11.9 ± 0.5
355 K, x2 = 0.2508 | – | 1459.8 ± 2.4 | 14.6 ± 0.6
355 K, x2 = 0.4001 | – | 1505.8 ± 2.5 | 31.7 ± 1.4
356 K, x2 = 0.3254 | – | 1478.8 ± 2.4 | 18.9 ± 0.8
